Read-outs that look alike come from different tables or passages of the source.
Assays:
Format in all cases: in vivo
[1] = system: Phakopsora pachyrhizi; experiment: Asian soybean rust (PHAKPA) disease control on soybean seedlings; settings: High volume application at 25 ppm; for pest or weed control at 25 ppm: Phakopsora pachyrhizi
Procedure: Example C: Evaluation of Fungicidal Activity: Asian Soybean Rust (Phakopsora pachyrhizi; Bayer Code […]) Technical grades of materials were dissolved in acetone, which were then mixed with nine volumes of water containing 0.011% Tween 20. The fungicide solutions were applied onto soybean seedlings using an automated booth sprayer to run-off. All sprayed plants were allowed to air dry prior to further handling. Soybean plants (variety Williams 82) were grown in soil-less Metro mix, with one plant per pot. Two week old seedlings were used for testing. Plants were inoculated either 3 days prior to or 1 day after fungicide treatments. Plants were incubated for 24 h in a dark dew room at 22° C. and 100% relative humidity then transferred to a growth room at 23° C. for disease to develop. Disease severity was assessed on the sprayed leaves.

[2] = system: Zymoseptoria tritici; experiment: Leaf blotch of wheat (SEPTTR) disease control on wheat seedlings; settings: High volume application, 100 ppm
Procedure: Example A: Evaluation of Fungicidal Activity: Leaf Blotch of Wheat (Zymoseptoria tritici; Bayer Code […]) Technical grades of materials were dissolved in acetone, which were then mixed with nine volumes of water containing 110 ppm Triton X-100. The fungicide solutions were applied onto wheat seedlings using an automated booth sprayer to run-off. All sprayed plants were allowed to air dry prior to further handling. All fungicides were evaluated using the aforementioned method for their activity vs. all target diseases, unless stated otherwise. Wheat leaf blotch and brown rust activity were also evaluated using track spray applications, in which case the fungicides were formulated as EC formulations, containing 0.1% Trycol 5941 in the spray solutions. Wheat plants (variety Yuma) were grown from seed in a greenhouse in 50% mineral soil/50% soil-less Metro mix until the first leaf was fully emerged, with 7-10 seedlings per pot. These plants were inoculated with an aqueous spore suspension of Zymoseptoria tritici either prior to or after fungicide treatments. After inoculation the plants were kept in 100% relative humidity (one day in a dark dew chamber followed by two to three days in a lighted dew chamber at 20° C.) to permit spores to germinate and infect the leaf. The plants were then transferred to a greenhouse set at 20° C. for disease to develop. When disease symptoms were fully expressed on the 1st leaves of untreated plants, infection levels were assessed on a scale of 0 to 100 percent disease severity. Percent disease control was calculated using the ratio of disease severity on treated plants relative to untreated plants.

[3] = system: Puccinia triticina; experiment: Wheat brown rust (PUCCRT) disease control on wheat seedlings; settings: High volume application, 100 ppm
Procedure: Technical grades of materials were dissolved in acetone, which were then mixed with nine volumes of water containing 110 ppm Triton X-100. The fungicide solutions were applied onto wheat seedlings using an automated booth sprayer to run-off. All sprayed plants were allowed to air dry prior to further handling. All fungicides were evaluated using the aforementioned method for their activity vs. all target diseases, unless stated otherwise. Wheat leaf blotch and brown rust activity were also evaluated using track spray applications, in which case the fungicides were formulated as EC formulations, containing 0.1% Trycol 5941 in the spray solutions. Example B: Evaluation of Fungicidal Activity: Wheat Brown Rust (Puccinia triticina; Synonym: Puccinia recondita f. sp. tritici; Bayer Code PUCCRT) Wheat plants (variety Yuma) were grown from seed in a greenhouse in 50% mineral soil/50% soil-less Metro mix until the first leaf was fully emerged, with 7-10 seedlings per pot. These plants were inoculated with an aqueous spore suspension of Puccinia triticina either prior to or after fungicide treatments. After inoculation the plants were kept in a dark dew room at 22° C. with 100% relative humidity overnight to permit spores to germinate and infect the leaf. The plants were then transferred to a greenhouse set at 24° C. for disease to develop. Fungicide formulation, application and disease assessment followed the procedures as described in the Example A.

[4] = 24 h, 1 Day Protectant, read-out: SEPTTR disease control rating, 1DP
[5] = 72 h, 3 Day Curative, read-out: SEPTTR disease control rating, 3DC
[6] = 24 h, 1 Day Protectant, read-out: PUCCRT disease control rating, 1DP
[7] = 72 h, 3 Day Curative, read-out: PUCCRT disease control rating, 3DC

| SMILES | PHAKPA 1DP (1 Day Protectant) disease control ([1]; 1 day protectant) | PHAKPA 3DC (3 Day Curative) disease control ([1]; 3 day curative) | pest or weed control at 25 ppm ([1]; 24 h, 1 day protectant, read-out: PHAKPA 1DP (1 Day Protectant) disease control) | pest or weed control at 25 ppm ([1]; 72 h, 3 day curative, read-out: PHAKPA 3DC (3 Day Curative) disease control) | pest or weed control at 100 ppm [2, 4] | pest or weed control at 100 ppm [2, 5] | pest or weed control at 100 ppm [3, 6] | pest or weed control at 100 ppm [3, 7] |
| --- | --- | --- | --- | --- | --- | --- | --- | --- |
| COc1ccnc(C(=O)N[C@H](C(=O)O[C@@H](C)[C@@H](C)c2ccc(F)cc2C)C(C)C)c1OC(=O)C(C)C [Example 208] | A (>80) | D (≤0) |  |  |  |  |  |  |
| COc1ccnc(C(=O)N[C@@H](C)C(=O)O[C@H](C)[C@@H](C)c2ccccc2C)c1OC(=O)C(C)C [Example 225] |  |  | < 0% | < 0% |  |  |  |  |
| COc1ccnc(C(=O)N[C@H](C)C(=O)O[C@@H](C)[C@H](C)c2ccc(F)cc2C)c1O [Example 149] |  |  |  |  | < 80% | < 80% | < 0% | < 0% |
| COc1ccnc(C(=O)N[C@H](C)C(=O)O[C@@H](C)[C@H](C)c2ccccc2C)c1O [Example 150] |  |  |  |  | < 80% | < 80% | < 0% | < 80% |
| COc1ccnc(C(=O)N[C@@H](C)C(=O)O[C@H](C)[C@@H](C)c2ccccc2C)c1O [Example 135] |  |  |  |  | < 80% | < 80% | < 80% | < 80% |
| COc1ccnc(C(=O)N[C@@H](C)C(=O)O[C@H](C)[C@H](C)C2CCCC2)c1O [Example 163] |  |  |  |  | < 80% | < 80% | < 80% | < 80% |
| COc1ccnc(C(=S)N[C@@H](C)C(=O)O[C@@H](C)[C@@H](C)C2CCCC2)c1O [Example 269] |  |  |  |  | < 80% | < 80% | < 80% | > 80% |
| COc1ccnc(C(=O)N[C@@H](C)C(=O)O[C@@H](C)[C@@H](C)c2c(C)cc(F)cc2C)c1O [Example 167] |  |  |  |  | > 80% | > 80% | > 80% | > 80% |
| COc1ccc([C@H](C)[C@H](C)OC(=O)[C@@H](C)NC(=O)c2nccc(OC)c2O)c(C)c1 [Example 152] |  |  |  |  | < 80% | < 80% | > 80% | < 80% |
| COc1ccnc(C(=O)NCC(=O)O[C@@H](C)[C@H](C)c2ccc(F)cc2C)c1O [Example 119] |  |  |  |  | < 0% | < 80% | > 80% | < 80% |
| COc1ccnc(C(=O)N[C@H](C)C(=O)O[C@H](C)[C@@H](C)c2ccc(F)cc2C)c1O [Example 154] |  |  |  |  | < 80% | < 80% | < 0% | < 0% |
| COc1ccnc(C(=O)N[C@@H](C)C(=O)O[C@H](C)[C@H](C)c2c(C)cccc2C)c1O [Example 168] |  |  |  |  | < 80% | > 80% | > 80% | > 80% |
| COc1cc(F)ccc1[C@@H](C)[C@@H](C)OC(=O)[C@H](C)NC(=O)c1nccc(OC)c1O [Example 173] |  |  |  |  | < 80% | < 80% | > 80% | < 80% |
| COc1ccnc(C(=O)N[C@H](C(=O)O[C@@H](C)[C@H](C)c2ccc(F)cc2C)C(C)C)c1O [Example 139] |  |  |  |  | < 80% | < 80% | < 80% | < 0% |
| COc1ccnc(C(=O)NCC(=O)O[C@H](C)[C@H](C)c2ccc(F)cc2)c1O [Example 126] |  |  |  |  | < 0% | < 80% | > 80% | < 80% |
| COc1ccnc(C(=O)NCC(=O)O[C@H](C)[C@@H](C)c2ccc(F)cc2C)c1O [Example 124] |  |  |  |  | < 0% | < 80% | < 80% | < 0% |
| COc1ccnc(C(=O)N[C@H](C(=O)O[C@@H](C)[C@H](C)c2ccccc2C)C(C)C)c1O [Example 140] |  |  |  |  | < 80% | < 80% | > 80% | < 80% |
| COc1ccnc(C(=O)N[C@@H](C)C(=O)O[C@H](C)[C@H](C)c2c(C)cc(F)cc2C)c1O [Example 169] |  |  |  |  | > 80% | > 80% | > 80% | > 80% |
| COc1ccnc(C(=S)N[C@@H](C)C(=O)O[C@@H](C)[C@@H](C)c2ccccc2C(F)(F)F)c1O [Example 267] |  |  |  |  | < 80% | < 80% | > 80% | < 80% |
| COc1ccnc(C(=O)N[C@H](C)C(=O)O[C@@H](C)[C@@H](C)c2ccc(F)cc2C)c1O [Example 148] |  |  |  |  | > 80% | < 80% | > 80% | < 80% |
| COc1ccnc(C(=O)N[C@@H](C)C(=O)O[C@@H](C)[C@@H](C)c2c(C)cccc2C)c1O [Example 166] |  |  |  |  | > 80% | > 80% | > 80% | > 80% |
| COc1ccnc(C(=O)N[C@@H](C)C(=O)O[C@@H](C)[C@@H](C)c2ccc(N(C)C)cc2)c1O [Example 176] |  |  |  |  | < 0% | < 80% | > 80% | < 80% |
| COc1ccnc(C(=O)N[C@@H](C)C(=O)O[C@@H](C)[C@H](C)c2ccccc2C)c1O [Example 130] |  |  |  |  | < 80% | < 80% | > 80% | > 80% |
| COc1ccnc(C(=O)N[C@H](C)C(=O)O[C@H](C)[C@H](C)c2ccc(F)cc2)c1O [Example 156] |  |  |  |  | < 80% | < 80% | < 0% | < 80% |
| COc1ccc([C@H](C)[C@H](C)OC(=O)[C@H](C)NC(=O)c2nccc(OC)c2O)c(C)c1 [Example 132] |  |  |  |  | > 80% | < 80% | > 80% | > 80% |
| COc1ccnc(C(=O)N[C@@H](C)C(=O)O[C@@H](C)[C@@H](C)c2ccc(F)cc2)c1O [Example 131] |  |  |  |  | < 80% | < 80% | > 80% | > 80% |
| COc1ccnc(C(=S)N[C@@H](C)C(=O)O[C@@H](C)[C@@H](C)c2ccc(F)cc2C(F)(F)F)c1O [Example 268] |  |  |  |  | < 80% | < 80% | > 80% | < 80% |
| COc1ccnc(C(=O)N[C@@H](C)C(=O)O[C@H](C)[C@H](C)c2ccc(F)cc2C)c1O [Example 133] |  |  |  |  | < 80% | < 80% | > 80% | < 80% |
| COc1ccnc(C(=O)N[C@@H](C)C(=O)O[C@H](C)[C@H](C)c2ccc(F)cc2C(F)(F)F)c1O [Example 162] |  |  |  |  | < 80% | < 80% | < 0% | < 0% |
